According to patent US20250195513A1, “DEGRADATION OF IRAK4 BY CONJUGATION OF IRAK4 INHIBITORS WITH E3 LIGASE LIGAND AND METHODS OF USE” (BeiGene, Ltd., priority 2022, published 2025):

Assays:
Format in all cases: cell-based
IRAK4 [1] = molecular target: T1, IRAK4 (Homo sapiens, UniProt Q9NWZ3); assay: IRAK4 Degradation Assay (Karpas299, HTRF/TR-FRET); conditions: Karpas-299 cells; for Dmax: maximum percentage of degradation
T1 construct: endogenous in cells; host or cells: Karpas299
T1 sequence (Q9NWZ3 1-460): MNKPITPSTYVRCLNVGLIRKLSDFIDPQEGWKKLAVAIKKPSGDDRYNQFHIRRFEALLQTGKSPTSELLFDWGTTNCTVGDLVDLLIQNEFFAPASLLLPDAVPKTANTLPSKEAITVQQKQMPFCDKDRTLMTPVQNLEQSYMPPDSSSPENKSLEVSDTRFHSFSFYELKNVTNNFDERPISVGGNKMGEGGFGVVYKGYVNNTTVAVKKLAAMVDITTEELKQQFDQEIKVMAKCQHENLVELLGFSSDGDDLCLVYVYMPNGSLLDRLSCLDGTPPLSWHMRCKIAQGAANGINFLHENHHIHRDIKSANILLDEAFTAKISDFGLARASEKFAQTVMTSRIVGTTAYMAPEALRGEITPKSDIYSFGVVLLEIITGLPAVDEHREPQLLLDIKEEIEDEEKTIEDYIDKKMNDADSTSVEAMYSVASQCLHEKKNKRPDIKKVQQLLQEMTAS
Summary of the method: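 Compound potency as DC50 (IC50) came from four-parameter fits of percent IRAK4 degradation. IRAK4 was measured by HTRF (665/620 nm) in lysates of Karpas299 cells seeded at 0.2 million per well. Cells had been treated with compound dilutions for 5 or 24 h.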

[2] = tested on: TNF-α production in THP-1 cells; assay: TNF-α Production Assay in THP-1 Cells (LPS stimulated); conditions: Homo sapiens, THP-1, 24 h; for Emax: maximum inhibition, read-out: TNF-α (THP-1) 24 h IMax
Summary of the method: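 Cells (0.2 million/well) pretreated with compounds for 24 h, then stimulated with LPS at 1 μg/mL final for 24 h. TNF-α in culture supernatant quantified by TR-FRET immunoassay.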

IRAK4 [3] = molecular target: T1, IRAK4; assay: IRAK4 Degradation Assay with Human Serum (Karpas299, HTRF/TR-FRET); conditions: Karpas-299 in human serum, 24 hrs treatment; for DC50: read-out: IRAK4 degradtion with human serum assay DC50; for Dmax: read-out: IRAK4 degradtion with human serum assay Dmax (%)
Summary of the method: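 Remaining IRAK4 measured by TR-FRET immunoassay on lysates of Karpas299 cells exposed 24 h to compound dilution series in human serum AB. DC50 derived from a Hill-slope fit of % degradation versus concentration.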

[4] = tested on: IL-6 production in human PBMC; assay: IL-6 Production Assay in Human PBMC (LPS stimulated); conditions: Homo sapiens, 5 h; for Emax: maximum inhibition, read-out: IL-6 (PBMC) 5 h IMax
Summary of the method: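 Thawed PBMC were rested overnight at 37 °C, seeded at 0.2 million cells/well and pretreated with compounds for 24 h. They were then stimulated with LPS at 10 ng/mL for 5 h. IL-6 in the supernatant was quantified by TR-FRET.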

[5] = 5 h treatment, read-out: IRAK4 in Karpas-299 (5 h) Dmax (%)
[6] = 5 h treatment, read-out: IRAK4 in Karpas-299 (5 h) DC50
[7] = 24 h treatment, read-out: IRAK4 in Karpas-299 (24 h) Dmax (%)
[8] = 24 h treatment, read-out: IRAK4 in Karpas-299 (24 h) DC50

| Structure (SMILES) | Dmax (IRAK4 [1]; [5]) [%] | DC50 (IRAK4 [1]; [6]) [nM] | Dmax (IRAK4 [1]; [7]) [%] | DC50 (IRAK4 [1]; [8]) [nM] | IC50 [2] [nM] | Emax [2] [%] | DC50 (IRAK4 [3]) [nM] | Dmax (IRAK4 [3]) [%] | IC50 [4] [nM] | Emax [4] [%] |
| --- | --- | --- | --- | --- | --- | --- | --- | --- | --- | --- |
| COC[C@H]1CN(CC2CN(c3cc(F)c([C@H]4CCC(=O)NC4=O)c(F)c3)C2)CCN1[C@H]1CC[C@H](n2cc3cc(NC(=O)c4ccc5cc(C#N)cnn45)c(C(C)(C)O)cc3n2)CC1 [Example 322, 3-cyano-N-(2-((1R,4r)-4-((R)-4-((1-(4-((R)-2,6-dioxopiperidin-3-yl)-3,5-difluorophenyl)azetidin-3-yl)methyl)-2-(methoxymethyl)piperazin-1-yl)cyclohexyl)-6-(2-hydroxypropan-2-yl)-2H-indazol-5-yl)pyrrolo[1,2-b]pyridazine-7-carboxamide] | 98 | 12 | 97 | 0.7 | 42 | 94 | 19 | 101 | 9.7 | 81 |
| CC(C)(O)c1cc2nn(C34CC(N5CCN(CC6CN(c7cc(F)c([C@H]8CCC(=O)NC8=O)c(F)c7)C6)CC5)(C3)C4)cc2cc1NC(=O)c1ccc2cc(C#N)cnn12 [Example 332, (R)-3-cyano-N-(2-(3-(4-((1-(4-(2,6-dioxopiperidin-3-yl)-3,5-difluorophenyl)azetidin-3-yl)methyl)piperazin-1-yl)bicyclo[1.1.1]pentan-1-yl)-6-(2-hydroxypropan-2-yl)-2H-indazol-5-yl)pyrrolo[1,2-b]pyridazine-7-carboxamide] | 97 | 1.5 | 97 | 0.6 | 7.6 | 93 | 10 | 101 | 1.4 | 70 |
| COC[C@@H]1CN(CC2CN(c3cc(F)c([C@H]4CCC(=O)NC4=O)c(F)c3)C2)CCN1[C@H]1CC[C@H](n2cc3cc(NC(=O)c4ccc5cc(C#N)cnn45)c(C(C)(C)O)cc3n2)CC1 [Example 326, 3-cyano-N-(2-((1S,4r)-4-((S)-4-((1-(4-((R)-2,6-dioxopiperidin-3-yl)-3,5-difluorophenyl)azetidin-3-yl)methyl)-2-(methoxymethyl)piperazin-1-yl)cyclohexyl)-6-(2-hydroxypropan-2-yl)-2H-indazol-5-yl)pyrrolo[1,2-b]pyridazine-7-carboxamide] | 97 | 1.9 | 100 | 0.7 | 13 | 99 | 2.9 | 95 | 1.9 | 65 |
| CC(C)(O)c1cc2nn(C34CCC(N5CCN(CCc6cc(F)c([C@H]7CCC(=O)NC7=O)c(F)c6)CC5)(CC3)CC4)cc2cc1NC(=O)c1ccc2cc(C#N)cnn12 [Example 151, (R)-3-cyano-N-(2-(4-(4-(4-(2,6-dioxopiperidin-3-yl)-3,5-difluorophenethyl)piperazin-1-yl)bicyclo[2.2.2]octan-1-yl)-6-(2-hydroxypropan-2-yl)-2H-indazol-5-yl)pyrrolo[1,2-b]pyridazine-7-carboxamide] | – | – | 99 | 0.9 | 27 | 84 | 3.9 | 101 | 7.4 | 53 |
| CC(C)(O)c1cc2nn([C@H]3CC[C@H](N4CCN(CC5CN(c6cc(F)c([C@H]7CCC(=O)NC7=O)c(F)c6)C5)CC4)CC3)cc2cc1NC(=O)c1ccc2cc(C#N)cnn12 [Example 290, 3-cyano-N-(2-((1r,4r)-4-(4-((1-(4-((R)-2,6-dioxopiperidin-3-yl)-3,5-difluorophenyl)azetidin-3-yl)methyl)piperazin-1-yl)cyclohexyl)-6-(2-hydroxypropan-2-yl)-2H-indazol-5-yl)pyrrolo[1,2-b]pyridazine-7-carboxamide] | – | – | 98 | 0.6 | 9 | 96 | 4.4 | 99 | 0.8 | 71 |
